{"source": "patent US9120776B2", "about": "“Condensed heterocyclic compound” (Takeda Pharmaceutical Company Limited, priority 2011, dated 2015)", "key": {"Th17 cells [1]": {"test_system": "Th17 cells", "experiment": "Mouse Th17 Cell Differentiation Test (IL-17A in culture supernatant, ELISA)", "assay_type": "cell-based", "settings": "inhibitory rate at 10 μM of test compound; mouse CD4 positive naive T cells, 4 days, IL-17A by ELISA; 10 µM", "procedure": "CD4 positive naive T cells were collected from the spleen cells of BALB/c mice (female, 8-11w, Charles River Laboratories Japan, Inc.) using CD4+CD62L+ T Cell Isolation kit II (Miltenyi Biotec). The CD4 positive naive T cells in a 96 well plate (3×10^5 cells/well) were stimulated (37° C. for culture) with anti-mouse CD3ε antibody (Bio X cell) (10 μg/mL, solid phase) and anti-CD28 antibody (Bio X cell) (5 μg/mL) for 4 days in the presence of anti-IFN-γ antibody (BioLegend), anti-IL-4 antibody (BioLegend), anti-IL-2 antibody (BioLegend), IL-6, TGF-β and IL-23 to differentiate into Th17 cells. The compound was dissolved in DMSO and then added thereto. The cells were cultured under these conditions for 4 days, and differentiation of the Th17 cells was evaluated by using the concentration of IL-17A, which was measured by ELISA, in the culture supernatant obtained by centrifugation."}, "Th17 cells [2]": {"test_system": "Th17 cells", "experiment": "Human Th17 Cell Differentiation Test (IL-17A in culture supernatant, ELISA)", "assay_type": "cell-based", "settings": "144 h; inhibitory rate at 10 μM of test compound; human CD4 positive naive T cells, 6 days, IL-17A by ELISA", "procedure": "CD4 positive naive T cells were isolated from peripheral blood mononuclear cells (PBMC) collected from human peripheral blood by a density gradient centrifugation method. The CD4 positive naive T cells were seeded in a 96 well plate (2×10^4 cells/well), and stimulated (37° C. for culture) with anti-CD 3/28Ab Dynabeads (Invitrogen) for 6 days in the presence of IL-1β, IL-6, IL-23, TGFβ, anti-IFNγ Ab (BioLegend) and anti-IL-4 Ab (BioLegend) to differentiate into Th17 cells. The compound was dissolved in DMSO and then added thereto. After culture for 6 days, the concentration of IL-17A in the culture supernatant obtained by centrifugation was measured by ELISA to evaluate differentiation of the Th17 cells."}, "human PBMC": {"test_system": "human PBMC", "experiment": "IL17 Production Test in Human PBMC", "assay_type": "cell-based", "settings": "72 h, inhibitory rate at 10 μM of test compound, anti-CD3/CD28 stimulation, 3 days, IL-17A by ELISA", "procedure": "Peripheral blood mononuclear cells (PBMC) collected from human peripheral blood by a density gradient centrifugation method were stimulated by Dynabeads (registered trade mark; anti-CD3/CD28 antibody) and cultured at 37° C. for 3 days. The compound was dissolved in DMSO and then added thereto. After culture for 3 days under such conditions, the concentration of IL-17A in the culture supernatant obtained by centrifugation was measured by ELISA to evaluate the effect of the compound on IL-17 production."}, "IL-17A gene expression [3]": {"test_system": "IL-17A gene expression", "experiment": "IL-17A gene expression induced by anti-CD3 antibody stimulation in mouse colon", "assay_type": "in vivo", "settings": "po, Balb/c mice", "procedure": "(§1) An anti-CD3 antibody (5 μg/500 μL/mouse, BioXcell) or saline (500 μL/mouse) was intraperitoneally administered to Balb/c mice (female, 8 weeks old). Three hours after the administration, the mice were anesthetized by ether inhalation, and euthanized by cervical spine fracture dislocation. Then, the mice underwent laparotomy, and colons were isolated. The obtained colons were washed with saline, and then, immersed in RNA stabilization buffer (RNAlater, QIAGEN) at 4° C. for 18 hours or longer. Meanwhile, a suspension of a compound in 0.5% methylcellulose was orally administered an hour before administration of anti-CD3 antibody.\n(§2) The colon tissues were retrieved from RNAlater, and immediately immersed in 5 mL of RLT buffer (RNeasy Mini Kit, QIAGEN). Then, the tissues were homogenized at room temperature. Total RNA was extracted from the homogenized solution in accordance with the protocol of RNeasy Mini Kit (QIAGEN), and cDNA was prepared using high capacity RNA-to-cDNA Kit (Applied biosystems). mRNAs of various cytokines were detected by realtime-PCR (TaqMan PCR) using the obtained cDNA as a template. TaqMan universal master mixII (Applied biosystems) was used as PCR buffer, and TaqMan Gene Expression Assays (Applied biosystems): Mm00439619_m1 (IL-17A), Mm00801778 m1 (IFN-γ) and 43252341E (β-actin) were used for detection of each cytokine gene, respectively. The expression levels of each gene were shown as normalized values calculated using β-actin expression level.\nAll the data were shown as mean values±SE. Statistical analyses were performed by Student's t test and William's test."}, "IFN-γ gene expression": {"test_system": "IFN-γ gene expression", "experiment": "IFN-γ gene expression induced by anti-CD3 antibody stimulation in mouse colon", "assay_type": "in vivo", "settings": "30, 100 and 300 mg/kg, po, Balb/c mice", "procedure": "as §1\nas §2, with “TaqMan universal master mixII (Applied biosystems) was used as PCR buffer, and TaqMan Gene Expression Assays (Applied biosystems): Mm00439619_m1 (IL-17A), Mm00801778 m1 (IFN-γ) and 43252341E (β-actin) were used for detection of each cytokine gene, respectively.” left out, “level. […]” for “level.”"}, "IL-17A gene expression [4]": {"test_system": "IL-17A gene expression", "experiment": "IL-17A gene expression in lymph node of EAE rat model", "assay_type": "in vivo", "settings": "30, 100 and 300 mg/kg, po twice a day; EAE-sensitized Lewis rat, 5th day", "procedure": "A killed Mycobacterium tuberculosis, H37Ra (DIFCO), was suspended at the concentration of 2 mg/mL in Freund Incomplete adjuvant (DIFCO), and 5 mg of MBP (Sigma) was dissolved in 1.25 mL of saline (Otsuka). These two solutions were mixed at the ratio of 1:1 using glass syringe with a three-way stopcock until emulsion was obtained. The emulsion was intracutaneously administered to the bottom of the right foot of Lewis rats (male, 7 weeks old) at 0.1 mL/rat.\nA suspension of the compound of Example 14 in 0.5% methylcellulose was orally administered twice a day from the day of sensitization at the dose of 30, 100 or 300 mg/kg. The last administration was performed on the 5th day after sensitization, and an autopsy was performed 4 hours after the last administration.\nThe autopsy was performed on the 5th day after the sensitization, and popliteal lymph nodes of the right leg were collected. […] The synthesized cDNA was detected by PCR reaction using Taqman Gene Expression Master Mix (Applied Biosystems) and 7900HT Fast realtime PCR system (Applied Biosystems) (Stage 1: 50° C., 2 min, Stage 2: 95° C., 10 min, Stage 3: 95° C., 15 sec, 60° C., 1 min, 40 cycle). […]"}}}
{"compound": "CCn1c2ccccc2c2cc(NC(=O)CC(C)CC(=O)Nc3ccc(C#N)c(Cl)c3)ccc21", "note": "(centres unmarked) [Example 14, N-(3-chloro-4-cyanophenyl)-N′-(9-ethyl-9H-carbazol-3-yl)-3-methylpentanediamide]", "values": [{"measurement": "inhibitory rate (%)", "setting": "Th17 cells [1]", "result": 96.0, "unit": "%"}, {"measurement": "inhibition at 10 µM", "setting": "Th17 cells [2]", "result": 99.3, "unit": "%"}, {"measurement": "inhibition at 10 µM", "setting": "human PBMC", "result": 95, "unit": "%"}, {"measurement": "inhibition rate of IL-17A expression", "setting": "IL-17A gene expression [3]; 30 mg/kg", "result": 10, "unit": "%"}, {"measurement": "inhibition rate of IL-17A expression", "setting": "IL-17A gene expression [3]; 100 mg/kg", "result": 25, "unit": "%"}, {"measurement": "inhibition rate of IL-17A expression", "setting": "IL-17A gene expression [3]; 300 mg/kg", "result": 53, "unit": "%"}, {"measurement": "effect on IFN-γ expression", "setting": "IFN-γ gene expression", "result": "did not affect IFN-γ expression"}, {"measurement": "effect on increase in IL-17A gene expression in lymph node", "setting": "IL-17A gene expression [4]", "result": "tended to suppress the increase in IL-17A gene expression"}]}
